Source: publication PMC9127493 (Signal Transduction and Targeted Therapy, 2022)

Columns and labels:
SARS-CoV-2 variant Alpha = experiment: microbe, parasite or virus in culture; type: cell-based; settings: Severe acute respiratory syndrome coronavirus 2; n = 6
SARS-CoV-2 variant Beta = experiment: microbe, parasite or virus in culture; type: cell-based; settings: Severe acute respiratory syndrome coronavirus 2; n = 6
SARS-CoV-2 variant Delta = experiment: microbe, parasite or virus in culture; type: cell-based; settings: Severe acute respiratory syndrome coronavirus 2; n = 6
[1] = system: SARS-CoV-2 variant Omicron; experiment: microbe, parasite or virus in culture; type: cell-based; settings: Severe acute respiratory syndrome coronavirus 2; n = 6
Omicron variant = experiment: Cytopathic effect (CPE) inhibition assay in Vero E6 cells; type: cell-based, SARS-CoV-2
[2] = system: four SARS-CoV-2 variants of concern (VOCs), including Alpha, Beta, Delta and Omicron; type: cell-based; settings: at 200 nM

Row | SMILES | EC50 (SARS-CoV-2 variant Alpha) | EC50 (SARS-CoV-2 variant Beta) | EC50 (SARS-CoV-2 variant Delta) | EC50 [1] | rescue of cytopathic effect (Omicron variant) | viral inhibition [2]
1 | Cc1cccc(/C=N/Nc2cc(N3CCOCC3)nc(OCCc3ccccn3)n2)c1 [Apilimod] | < 6.9 nM | < 6.9 nM | < 6.9 nM | < 6.9 nM | significantly rescued the cytopathic effects | –
2 | CCC(CC)COC(=O)[C@H](C)N[P@](=O)(OC[C@H]1O[C@@](C#N)(c2ccc3c(N)ncnn23)[C@H](O)[C@@H]1O)Oc1ccccc1 [Remdesivir] | 609 nM | 495 nM | 938 nM | 615 nM | – | –
3 | COc1ccc(C(=O)Nc2cccc(C(F)(F)F)c2)cc1Nc1nc(-c2cccnc2)c2[nH]ccc2n1 [XMU-MP-7] | < 6.9 nM | 12.4 nM | < 6.9 nM | < 6.9 nM | significantly rescued the cytopathic effects | complete viral inhibition
